Experimental data published in patent US5747545A, “Method of preventing NMDA receptor complex-mediated Neuronal damage” (priority 1995, dated 1998).
Entries after “also recorded” stand apart in the source; their conditions may differ.

Experiments:
[1] = physchem; assay type: physicochemical; conditions: pH 7.4
[2] = test system: NMDA receptor (rat cortical neurons in culture); assay: Digital fura-2 imaging of NMDA-evoked intracellular [Ca2+] in cultured cortical neurons; assay type: cell-based, rat (Sprague-Dawley); conditions: after 2 mM DTT; 3 min exposure to 100 μM SNOC; NMDA 50 μM; FIG. 5A, P<0.01
[3] = test system: cortical neurons (neuronal survival)
Description: S-nitrosocysteine was added as a source of NO.cndot. to cerebrocortical cultures (Lei et al., (1992) Neuron 8:1087-1099; Stamler et al., (1992) Science 258:1898-1902).
Peroxynitrite leads to lipid peroxidation and massive oxidation of sulfhydryls (Radi et al., (1991) J. Biol. Chem. 266:4244-4250; Radi et al., (1991) Arch. Biochem. Biophys. 288:481-487).
Values are expressed as mean+s.e.m. (n=9). Statistical comparisons were performed by an analysis of variance followed by a Scheffe multiple comparison of means (*, P<0.01 compared to control; **, P<0.05 compared to control; .dagger., P<0.01 compared to nitroso compound+SOD/catalase).
Specifically, the data in FIG. 7 were generated using mixed neuronal and glial cortical cultures from neonatal rats, as described previously (Lei, et al., (1992) Neuron 8:1087-1099). In at least three separate experiments, triplicate cultures were incubated overnight in Earle's buffered saline solution (EBSS) containing various concentrations of SNOC, peroxynitrite, SOD, catalase, or glutamate. […] The culture fluid was assayed for […] (LDH) as an indicator of neuronal survival by measuring the absorbance at 450 nm (Koh et al., (1987) J. Neurosci. Meth. 20:83-90). The cultures were also scored for neuronal viability by cell counting, generally with 0.2% trypan blue, after fixation in 2.5% glutaraldehyde, as described above. Neurons from cultures grown on 15 mm diameter cover slips were counted in a masked fashion in ~30 microscopic fields at 200 x.

[4] = test system: kainate (KA)-elicited current (rat retinal ganglion cells); assay: Whole-cell patch clamp of kainate-elicited current on rat retinal ganglion cells; assay type: cell-based, rat (Long-Evans); conditions: 12 μM memantine, 50 μM kainate
Source text: (§1) FIGS. 4A'-4B' depict evidence for open-channel block of NMDA-elicited whole-cell current by memantine (MEM) on rat retinal ganglion cells. […] A rapid application system was used to administer the drugs, and a fast washout method was used in the experiments shown in FIGS. 4A' and 4B'.
(§2) For retinal ganglion cell labeling, dissociation, and culture, we used techniques that have been detailed elsewhere (Leifer et al. (1984) Science 224:303-306). […] Two to six days later, the animals were killed by decapitation. Following enucleation, the retinas were dissociated with mild treatment with the enzyme papain. The retinal cells were than plated onto glass coverslips coated with poly-L-lysine in 35 mm tissue culture dishes. The growth medium was Eagle's minimum essential medium supplemented with 0.7% (w/v) methylcellulose, 0.3% (w/v) glucose, 2 mM glutamine, 5% (v/v) rat serum, and 1 μg/ml gentamicin. Retinal ganglion cells were identified by the presence of the retrogradely transported dye granular blue.
(§3) Whole-cell and single-channel recordings of rat retinal ganglion cells were performed as described in detail elsewhere (Hamill et al., 1981; Lipton and Tauck, 1987). […]

[5] = test system: NMDA antagonist (MK-801) binding to post-mortem human brain homogenates; conditions: Kornhuber et al. 1989; cited from earlier work
[6] = test system: quisqualate (QUIS)-elicited current (rat retinal ganglion cells); assay: Whole-cell patch clamp of quisqualate-elicited current on rat retinal ganglion cells; assay type: cell-based, rat (Long-Evans); conditions: 12 μM memantine, 5 μM quisqualate
Source text: as §1, §2, §3

[7] = test system: retinal ganglion cells (NMDA receptor-mediated neurotoxicity); assay: Retinal ganglion cell survival assay (endogenous glutamate-related toxin, high calcium, low magnesium medium); assay type: cell-based, rat (Long-Evans); conditions: FIG. 3'
Description: To test amantadine derivatives for their ability to prevent neurotoxicity, neuronal cell death may be assayed as follows. […] Two to 6 days later, the animals are sacrificed by decapitation and enucleated, and the retinas quickly removed. The retinas are dissociated by mild treatment with the enzyme papain and cultured in Eagle's minimum essential medium (MEM, catalog #1090, Gibco, Grand Island, N.Y.) supplemented with 0.7% (w/v) methylcellulose, 0.3% (w/v) glucose, 2 mM glutamine, 1 μg/ml gentamicin, and 5% (v/v) rat serum, as described in Lipton et al., J. Physiol. 385:361, 1987. The cells are plated onto 75 mm^2 glass coverslips coated with poly-L-lysine in 35 mm tissue culture dishes. […]
To perform the viability test, the cell-culture medium is exchanged for physiological saline containing 0.0005% fluorescein diacetate for 15-45 s, and then cells are rinsed in saline. […] In contrast, the viable retinal ganglion cells display not only a blue color in the UV light but also a yellow-green fluorescence with filters appropriate for fluorescein. Thus, the use of two exchangeable fluorescence filter sets permits the rapid determination of viable ganglion cells in the cultures. […]

[8] = test system: NMDA receptor (rat retinal ganglion cells); assay: Whole-cell patch clamp of NMDA-elicited current on rat retinal ganglion cells; assay type: cell-based, rat (Long-Evans)
Source text: as §1, §2
Whole-cell and single-channel recordings of rat retinal ganglion cells were performed as described in detail elsewhere (Hamill et al., 1981; Lipton and Tauck, 1987). The neurons were continuously superfused in a chamber at 27°-29° C. with a bath solution composed of (in mM) NaCl, 137.6; KCl, 5.8; CaCl2, 2.5; HEPES, 5; glucose, 22.2; with phenol red, 0.001% (v/v); glycine, 1 μM; pH 7.2; and no added magnesium. The patch pipettes were filled with an intracellular solution containing (in mM) CsCl, 120; tetraethylammonium chloride, 20; HEPES, 10; EGTA, 2.25; CaCl2, 1; and MgCl2, 2; and sometimes with 3 mM Mg-ATP to minimize rundown in prolonged recordings (pH 7.2). […]. Solution changes could be achieved rapidly, within 50-100 msec, by moving the array of constantly flowing pipette tips relative to the cell with a micromanipulator driver. A control pipette containing bath solution and 1 μM TTX was used to wash out NMDA-inducedcurrent rapidly.

[9] = test system: NMDA receptor channels; conditions: Bormann 1989; cited from earlier work

SMILES	half-life [1]	Effect on NMDA-evoked [Ca2+]i response (SNOC experiment) [2]	Killing of cortical neurons [3]	Maximally-lethal concentration [3]	Effect on kainate-elicited current [4]	Inhibition of binding of MK-801 [5]	Effect on quisqualate-elicited current [6]	minimal effective concentration ([7]; Rattus norvegicus, compared to control, read-out: Concentration at which increased neuronal survival reached statistical significance)	Effect on retinal ganglion cell death from endogenous glutamate-related toxin ([7]; memantine 1-25 μM, 16-20 h, 37° C.)	Kinetics for blocking/unblocking NMDA receptor-mediated response [8]	Effect of memantine when administered alone ([8]; 12 μM memantine alone, -60 mV, FIG. 4b' left)	Effect on NMDA-induced current ([8]; 12 μM memantine, 200 μM NMDA, -50 and +50 mV)	Inhibition of response to NMDA ([8]; 12 μM memantine, 200 μM NMDA, -60 mV, n=17)	Block of NMDA receptor channels [9]
N[C@@H](CSN=O)C(=O)O [SNOC, S-nitrosocysteine]	~30 s	recovered only slightly	dose-dependent killing of cortical neurons	200 µM	–	–	–	–	–	–	–	–	–	–
CC12CC3CC(C)(C1)CC(N)(C3)C2 [memantine, 1-amino-3,5-dimethyl adamantine]	–	–	–	–	did not affect the current	inhibits the binding of an NMDA antagonist (MK-801)	did not affect the current	6 µM	prevented retinal ganglion cell death from the endogenous glutamate-related toxin in a dose-dependent manner; also recorded: blocks neuronal cell death mediated by excessive stimulation of the NMDA receptor	relatively rapid	lack of effect	blocking effect	90%	blocks NMDA receptor channels
